Source: patent publication US8470842B2, “Hydrochloride salts of 8-[{1-(3,5-Bis-trifluoromethyl)phenyl)-ethoxy}-methyl]-8-phenyl-1,7-diaza-spiro[4.5]decan-2-one and preparation process therefor” (OPKO Health, Inc., priority 2006, dated 2013)
Entries after “also recorded” stand apart in the source; their conditions may differ. Structures can show the parent of a compound that is named as a salt.

How the values were obtained:
Format in all cases: physicochemical
[1] = Solubility tests (equilibrated slurry, HPLC quantification); conditions: for aqueous solubility: water, pH of 4 or less (more acidic)
Procedure: Solubility tests were conducted by placing an excess of the compound in an aliquot of the solvent of interest and allowing the slurry to equilibrate under the selected temperature conditions (typically ambient). When the solvent was water, pH was adjusted to the desired value with hydrochloric acid and sodium hydroxide. When the slurry mixture had equilibrated, the excess solids were centrifuged (water) or filtered (all other solvents) from the supernatant and the amount of compound which had been dissolved was quantified utilizing HPLC analysis of diluted aliquots of the supernatant liquid. Pharmaceutical grade solvents were employed.

[2] = Chemical stability tests on storage under humidity and temperature conditions
Procedure: Chemical stability tests were carried out on aliquots of the salt form of interest by placing a accurately weighed sample of the salt form of the compound of Formula I into a polyethylene bag. The bagged samples were enclosed in fiberboard tubes fitted with metal caps which were stored under the indicated conditions of humidity and temperature for the indicated time. Analysis was carried out by dissolving the contents of a vial and quantifying the amount of solute utilizing HPLC analysis. Where noted the aliquots were stored in capped amber vials under the conditions noted instead of polyethylene bags.
(§1) The stability of the crystalline monohydrate hydrochloride salt form of the compound of Formula I was also examined using the procedure described above for samples contained in polyethylene bags by exposing samples to the following conditions: (a) 60% relative humidity (RH) at 4° C. for twelve months, at 25° C. for eighteen months, and at 50° C. for one month; (b) 40° C. and 75% relative humidity (RH) for twelve weeks, and (c) 70° C. at ambient humidity for one hour. Samples of the crystalline monohydrate hydrochloride form I salt were also tested for one cycle of ICH UV/Vis light stress conditions.
(§2) The stability of the crystalline tosylate form I salt form of the compound of Formula I was examined by placing weighed amounts of the salt into clear glass vials and storing them under the indicated conditions. Periodically a vial was removed and the contents examined for decomposition of the compound. Accordingly, samples of the tosylate form I salt were exposed to the following conditions: (a) 40° C. and 75% relative humidity (RH) for four weeks; (b) 50° C. and ambient relative humidity for four weeks; and (c) 70° C. for one hour. Samples of the tosylate form I salt were separately tested for one cycle of ICH UV/Vis light stress conditions.

[3] = ICH UV/Vis light stress conditions; conditions: one cycle of ICH UV/Vis light stress conditions
Procedure: as §1, §2

[4] = solvent Ethanol, ambient temperature
[5] = solvent Glycerin, ambient temperature
[6] = solvent PEG 400, ambient temperature
[7] = solvent Propylene Glycol, ambient temperature

C[C@@H](OC[C@@]1(c2ccccc2)CC[C@]2(CCC(=O)N2)CN1)c1cc(C(F)(F)F)cc(C(F)(F)F)c1 [monohydrate hydrochloride form I salt, (5S,8S)-8-[{(1R)-1-(3,5-Bis-(trifluoromethyl)phenyl)-ethoxy}-methyl]-8-phenyl-1,7-diazaspiro[4.5]decan-2-one]
Solubility (mg/ml, ambient conditions) [1, 4]: 185 mg/mL | Solubility (mg/ml, ambient conditions) [1, 5]: 16 mg/mL | Solubility (mg/ml, ambient conditions) [1, 6]: 20 mg/mL | Solubility (mg/ml, ambient conditions) [1, 7]: 160 mg/mL | aqueous solubility [1]: at least 1.0 mg/ml | temperature up to which the salt is stable ([2]; 70° C. at ambient humidity for one hour, polyethylene bags): about 70 °C | stability at ambient/room temperature over relative humidity range ([2]; ambient temperature, about 5% to about 95% relative humidity): does not decompose or dehydrate; also recorded: stable at room temperature | stability under light stress [3]: stable under light stress conditions

C[C@@H](OC[C@@]1(c2ccccc2)CC[C@]2(CCC(=O)N2)CN1)c1cc(C(F)(F)F)cc(C(F)(F)F)c1 [anhydrous form I salt, (5S,8S)-8-[{(1R)-1-(3,5-Bis-(trifluoromethyl)phenyl)-ethoxy}-methyl]-8-phenyl-1,7-diazaspiro[4.5]decan-2-one]
form change on storage ([2]; storage under ambient conditions of temperature and humidity after dehydration): returns the crystals to the monohydrate form

C[C@@H](OC[C@@]1(c2ccccc2)CC[C@]2(CCC(=O)N2)CN1)c1cc(C(F)(F)F)cc(C(F)(F)F)c1 [tosylate form I salt, (5S,8S)-8-[{(1R)-1-(3,5-Bis-(trifluoromethyl)phenyl)-ethoxy}-methyl]-8-phenyl-1,7-diazaspiro[4.5]decan-2-one]
Solubility (mg/ml, ambient conditions) [1, 4]: 75 mg/mL | Solubility (mg/ml, ambient conditions) [1, 5]: 2.5 mg/mL | Solubility (mg/ml, ambient conditions) [1, 6]: 1.8 mg/mL | Solubility (mg/ml, ambient conditions) [1, 7]: 20 mg/mL | aqueous solubility [1]: at least 0.38 mg/ml | stability under all tested conditions ([2]; clear glass vials, 40° C./75% RH four weeks, 50° C./ambient RH four weeks, 70° C. one hour, one cycle ICH UV/Vis light stress): stable under all tested conditions
